Measurements published in US20100280021A1, “PYRIDOPYRIMIDINE PROTEIN TYROSINE PHOSPHATASE INHIBITORS” (priority 2005, published 2010).

target: T1, Human PTP1B (1-321) (Homo sapiens, UniProt P18031); experiment: In vitro inhibition of PTP1B (PTPase assays: Malachite Green phosphopeptide method or DiFMUP method); assay type: biochemical; conditions: PTP1B inhibitory activity
T1 construct: Human PTP1B (1-321) was cloned from a human cDNA library; made in house; host or cells: E. coli
T1 sequence (P18031 1-321): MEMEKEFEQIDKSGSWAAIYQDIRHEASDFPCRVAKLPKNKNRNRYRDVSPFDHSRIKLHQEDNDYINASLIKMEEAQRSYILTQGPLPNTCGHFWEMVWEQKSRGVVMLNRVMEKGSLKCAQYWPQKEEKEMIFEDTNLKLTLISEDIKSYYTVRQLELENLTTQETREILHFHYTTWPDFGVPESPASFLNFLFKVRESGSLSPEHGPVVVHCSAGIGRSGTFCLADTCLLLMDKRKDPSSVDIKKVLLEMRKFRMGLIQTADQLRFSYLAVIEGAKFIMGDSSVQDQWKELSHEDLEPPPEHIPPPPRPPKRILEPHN
Description: Human PTP1B (1-321) was cloned from a human cDNA library using conventional molecular biology techniques. The cDNA sequence was identical to the published human PTP1B sequence (Accession number M33689). The protein was expressed and purified from E. coli as described by Barford D. et. al J. Mol. Biol (1994) 239, 726-730.
The measurement of PTPase activity was carried out using one of two methods:
The first method for the measurement of PTP1B inhibitory activity a tyrosine phosphorylated peptide based on the amino acid sequence of insulin receptor tyrosine autophosphorylation site 1146 (TRDI(pY)E) was used as substrate. The reaction conditions were as follows:
PTP1B (0.5-2 nM) was incubated with compound for 15 min in buffer containing 37.5 mM Bis-Tris buffer pH 6.2, 140 mMNaCl, 0.05% BSA and 2 mM DTT. The reaction was started by the addition of 50 μM substrate. After 20 min at room temperature (22-25° C.), the reaction was stopped with KOH and the amount of free phosphate measured using Malachite Green as previously described (Harder et al. 1994 Biochem J. 298; 395).
The second method was used for the measurement of general PTPase inhibitory activity across a panel of PTPases the substrate (6,8-difluoro-4-methylumbelliferyl phosphate (DiFMUP; from Molecular Probes) was used at the Km for each enzyme. The buffer conditions were identical as in the Malachite Green assay. The reaction was stopped with KOH. In this case the dephosphoryated product becomes fluorescent and the fluorescense read (Excitiation: […]/Emmission: 460 nM).
The following Table lists IC50 results for several of the above exemplified compounds: […]

SMILES	IC50
CNc1nc(N)nc2nc(-c3c(Oc4ccccc4)cccc3C(F)(F)F)ccc12 [Example 80, N4-Methyl-7-(2-phenoxy-6-trifluoromethyl-phenyl)-pyrido[2,3-d]pyrimidine-2,4-diamine]	170 nM
CNc1nc(N)nc2nc(-c3ccccc3)cc(-c3ccccc3)c12 [Example 139, N*4*-Methyl-5,7-diphenyl-pyrido[2,3-d]pyrimidine-2,4-diamine]	52400 nM
CNc1nc(N)nc2nc(-c3cccc4ccccc34)ccc12 [Example 28, N4-Methyl-7-naphthalen-1-yl-pyrido[2,3-d]pyrimidine-2,4-diamine]	1150 nM
CNc1nc(N)nc2nc(-c3ccccc3)c(-c3ccccc3)cc12 [Example 14, N4-Methyl-6,7-diphenyl-pyrido[2,3-d]pyrimidine-2,4-diamine]	2560 nM
CNc1nc(N)nc2nc(-c3c(Cl)cccc3Cl)ccc12 [Example 3, 7-(2,6-Dichloro-phenyl)-N4-methyl-pyrido[2,3-d]pyrimidine-2,4-diamine]	510 nM
CNc1nc(N)nc2nc3c(cc12)CCc1ccccc1-3 [Example 27, N8-Methyl-5,6-dihydro-benzo[h]pyrimido[4,5-b]quinoline-8,10-diamine]	4220 nM
CNc1nc(N)nc2nc(-c3c(F)cccc3N3CCOCC3)ccc12 [Example 92, 7-(2-Fluoro-6-morpholino-4-yl-phenyl)-N4-methyl-pyrido[2,3-d]pyrimidine-2,4-diamine]	2330 nM
CNc1nc(N)nc2nc(C3CCCCC3)ccc12 [Example 9, 7-Cyclohexyl-N4-methyl-pyrido[2,3-d]pyrimidine-2,4-diamine]	1410 nM
CNc1nc(N)nc2nc(-c3c(N4CCC(Cc5ccccc5)CC4)cccc3C(F)(F)F)ccc12 [Example 121, 7-[2-(4-Benzyl-piperidin-1-yl)-6-trifluoromethyl-phenyl]-N4-methyl-pyrido[2,3-d]pyrimidine-2,4-diamine]	2050 nM
CNc1nc(N)nc2nc(-c3cccs3)ccc12 [Example 13, N4-Methyl-7-thiophen-2-yl-pyrido[2,3-d]pyrimidine-2,4-diamine]	3570 nM
CNc1nc(N)nc2nc(-c3c(N4C(C)CCC4C)cccc3C(F)(F)F)ccc12 (stereo not drawn) [Example 107, 7-[2-(2,5-Dimethyl-pyrrolidin-1-yl)-6-trifluoromethyl-phenyl]-N4-methyl-pyrido[2,3-d]pyrimidine-2,4-diamine]	800 nM
CNc1nc(N)nc2nc(-c3ccccc3C(F)(F)F)c(C(=O)O)cc12 [Example 56, 2-Amino-4-methylamino-7-(2-trifluoromethyl-phenyl)-pyrido[2,3-d]pyrimidine-6-carboxylic acid]	250 nM
CNc1nc(N)nc2nc(C3(c4ccccc4)CCCCC3)ccc12 [Example 59, N4-Methyl-7-(1-phenyl-cyclohexyl)-pyrido[2,3-d]pyrimidine-2,4-diamine]	10800 nM
CNc1nc(N)nc2nc(-c3ccccc3C)ccc12 [Example 1, N4-Methyl-7-o-tolyl-pyrido[2,3-d]pyrimidine-2,4-diamine]	1660 nM
CNc1nc(N)nc2nc(-c3c(N4CCN(C(=O)c5ccco5)CC4)cccc3C(F)(F)F)ccc12 [Example 116, {4-[2-(2-Amino-4-methylamino-pyrido[2,3-d]pyrimidin-7-yl)-3-trifluoromethyl-phenyl]-piperazin-1-yl}-furan-2-yl-methanone]	300 nM
